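48-hour exposure; five concentrations; linearly interpolated endpoints. The concentration for 50% growth inhibition is given as GI50. TGI marks complete inhibition of growth.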

Test systems include HOP-92 NSCLC; CCRF-CEM leukemia; SK-MEL-2 melanoma; SK-MEL-28 melanoma; NCI-H23 lung; SK-MEL-5 melanoma; A549 NSCLC; KM12 colon; HCT-15 colon; UACC-257 melanoma.
Holding throughout (assay): DTP human tumour cell line panel, 48 h

Take `C[Si](C)(C)C(CCCCSc1ccccc1)(Sc1ccccc1)Sc1ccccc1`: the TGI in the test with HOP-92 NSCLC, in the test with CCRF-CEM leukemia, with SK-MEL-2 melanoma, in the test on SK-MEL-28 melanoma, in the test with NCI-H23 lung and with SK-MEL-5 melanoma was > 100 µM each time. Moreover, the TGI in the test with A549 NSCLC, in the test on KM12 colon, with HCT-15 colon and in the test with UACC-257 melanoma was > 100 µM each time.
On to `CN(C)c1ccc(/C=C2\N=C(c3ccccc3)N(c3cc(C(F)(F)F)ccc3Cl)C2=O)cc1`, for which the GI50 in the test with HOP-92 NSCLC was > 87.1 µM; with CCRF-CEM leukemia, > 100 µM; in the test on SK-MEL-2 melanoma, > 100 µM; with SK-MEL-28 melanoma it was > 100 µM; in the test with NCI-H23 lung it was > 100 µM; in the test on SK-MEL-5 melanoma, > 100 µM. In addition, the GI50 with A549 NSCLC, in the test on KM12 colon, with HCT-15 colon and with UACC-257 melanoma was > 100 µM throughout. Also, the TGI in the test on HOP-92 NSCLC, in the test on CCRF-CEM leukemia, with SK-MEL-2 melanoma, with SK-MEL-28 melanoma, in the test on NCI-H23 lung and with SK-MEL-5 melanoma was > 100 µM in each case. The TGI in the test with A549 NSCLC, in the test on KM12 colon, with HCT-15 colon and with UACC-257 melanoma was > 100 µM throughout.
`C#CCNC(=S)N/N=C(\C)c1ccccn1`: the GI50 in the test with HOP-92 NSCLC is 0.28 µM; with CCRF-CEM leukemia, 0.0677 µM; in the test with SK-MEL-2 melanoma, 6.2 µM; with SK-MEL-28 melanoma, 2.32 µM; with NCI-H23 lung it was 0.208 µM; in the test with SK-MEL-5 melanoma, 0.617 µM. Moreover, the GI50 with A549 NSCLC is 1.18 µM; with KM12 colon it was 0.426 µM; with HCT-15 colon, 0.36 µM; in the test on UACC-257 melanoma, 0.302 µM. For the same compound, the total growth inhibition concentration (TGI) in the test on HOP-92 NSCLC was > 100 µM; in the test on CCRF-CEM leukemia, > 100 µM; in the test on SK-MEL-2 melanoma, > 100 µM; in the test with SK-MEL-28 melanoma it was > 100 µM; in the test with NCI-H23 lung, > 100 µM; in the test with SK-MEL-5 melanoma it was 2.7 µM. For the same compound, the TGI was > 100 µM in the test on A549 NSCLC, > 100 µM with KM12 colon, > 100 µM in the test on HCT-15 colon and 1.49 µM in the test with UACC-257 melanoma.
In the case of `Cn1cccc1-c1cc(-c2ccccc2)[nH]c(=O)c1C#N`, the total growth inhibition concentration (TGI) in the test on HOP-92 NSCLC is 0.0283 µM; in the test on CCRF-CEM leukemia it was > 100 µM; with SK-MEL-2 melanoma, > 100 µM; in the test on SK-MEL-28 melanoma, > 100 µM; with NCI-H23 lung it was > 100 µM; in the test with SK-MEL-5 melanoma, > 100 µM. Further, the TGI in the test with A549 NSCLC, with KM12 colon, in the test with HCT-15 colon and in the test with UACC-257 melanoma was > 100 µM in each case. The GI50 with CCRF-CEM leukemia, in the test on SK-MEL-2 melanoma, in the test with SK-MEL-28 melanoma, in the test on NCI-H23 lung, in the test with SK-MEL-5 melanoma and in the test on A549 NSCLC was > 100 µM in each case. In addition, the GI50 in the test with KM12 colon, in the test with HCT-15 colon and in the test with UACC-257 melanoma was > 100 µM throughout.
Regarding `Cc1cc(C)c2c(n1)sc1c(N)ncnc12`, the GI50 in the test on HOP-92 NSCLC was 1.43 µM; with CCRF-CEM leukemia it was > 25 µM; in the test with SK-MEL-2 melanoma, > 25 µM; in the test with SK-MEL-28 melanoma, > 25 µM; in the test on NCI-H23 lung, > 25 µM; in the test with SK-MEL-5 melanoma it was > 25 µM. For the same compound, the GI50 was > 25 µM in the test on A549 NSCLC, > 22.3 µM in the test with KM12 colon, > 25 µM in the test on HCT-15 colon and > 25 µM in the test with UACC-257 melanoma. The total growth inhibition concentration (TGI) is > 14 µM in the test with HOP-92 NSCLC; > 25 µM in the test on CCRF-CEM leukemia; > 25 µM in the test on SK-MEL-2 melanoma; > 25 µM with SK-MEL-28 melanoma; > 25 µM in the test with NCI-H23 lung; > 25 µM in the test on SK-MEL-5 melanoma. Besides, the TGI in the test on A549 NSCLC, in the test with KM12 colon, in the test on HCT-15 colon and in the test with UACC-257 melanoma was > 25 µM in each case.
`O=C(/C=C/c1ccc(C(F)(F)F)cc1)Nc1ccc(C=C2c3ccccc3C(=O)c3ccccc32)cc1`: the GI50 is 1.49 µM in the test on HOP-92 NSCLC; 3.4 µM in the test with CCRF-CEM leukemia; 4.11 µM with SK-MEL-2 melanoma; 7.38 µM in the test on SK-MEL-28 melanoma; 3.32 µM in the test with NCI-H23 lung; 2.71 µM in the test on SK-MEL-5 melanoma. The GI50 was 6.14 µM with A549 NSCLC, 2.33 µM in the test with KM12 colon, 4.18 µM with HCT-15 colon and 3.87 µM in the test on UACC-257 melanoma. The TGI in the test with HOP-92 NSCLC is 22.4 µM; in the test with CCRF-CEM leukemia, > 100 µM; in the test with SK-MEL-2 melanoma, 30.6 µM; in the test on SK-MEL-28 melanoma it was > 100 µM; with NCI-H23 lung it was > 100 µM; in the test on SK-MEL-5 melanoma, 13.4 µM. In addition, the concentration for total growth inhibition (TGI) in the test with A549 NSCLC is > 100 µM; in the test with KM12 colon it was 40.6 µM; in the test with HCT-15 colon, > 100 µM; with UACC-257 melanoma, > 100 µM.
In the case of `CCN(Cc1cc(F)ccc1F)c1ccc(CO)c(Cl)c1`, the GI50 in the test with HOP-92 NSCLC is 0.292 µM; with CCRF-CEM leukemia it was 22.5 µM; in the test on SK-MEL-2 melanoma, 2.72 µM; with SK-MEL-28 melanoma, 13.8 µM; in the test on NCI-H23 lung, 11.4 µM; in the test with SK-MEL-5 melanoma, 10.8 µM. Moreover, the GI50 was 1.54 µM in the test with A549 NSCLC, 14.5 µM in the test with KM12 colon, 12.8 µM in the test with HCT-15 colon and 0.0904 µM with UACC-257 melanoma. The concentration for total growth inhibition (TGI) in the test on HOP-92 NSCLC was determined as 6.21 µM; with CCRF-CEM leukemia, 91.5 µM; in the test with SK-MEL-2 melanoma, 19.5 µM; in the test with SK-MEL-28 melanoma it was 27.5 µM; in the test on NCI-H23 lung it was 33.1 µM; with SK-MEL-5 melanoma it was 22.9 µM. Besides, the TGI in the test with A549 NSCLC was 21.6 µM; with KM12 colon, 30.8 µM; with HCT-15 colon, 32.3 µM; in the test on UACC-257 melanoma, 0.308 µM.
For the compound `Cc1ccc(S(=O)(=O)N=NC=C2c3ccccc3N(O)c3ccccc32)cc1`, the TGI with HOP-92 NSCLC was found to be 19.5 µM; with CCRF-CEM leukemia it was 2.93 µM; with SK-MEL-2 melanoma, 17.8 µM; with SK-MEL-28 melanoma, 14.5 µM; in the test with NCI-H23 lung it was 19.3 µM; in the test on SK-MEL-5 melanoma, 18.8 µM. Also, the concentration for total growth inhibition (TGI) is 20 µM in the test with A549 NSCLC, 26.6 µM with KM12 colon, 3.63 µM in the test on HCT-15 colon and 23.7 µM in the test on UACC-257 melanoma.

For the origin of these results see PubChem BioAssay (NCI).
